According to ChEMBL document CHEMBL3745656, “Discovery of Inhibitors That Overcome the G1202R Anaplastic Lymphoma Kinase Resistance Mutation” (J Med Chem, 2015):

Legend:
[1] = in vivo; conditions: mouse, brain, iv, 2 mg/kg
[2] = in vivo; conditions: mouse, brain, po, 10 mg/kg
[3] = Plasma concentration in mouse at 2 mg/kg, iv after 2 hrs; type: ADME, organism-based
[4] = Plasma concentration in mouse at 10 mg/kg, po after 2 hrs; type: ADME, organism-based
[5] = Plasma concentration in mouse at 2 mg/kg, iv after 8 hrs; type: ADME, organism-based
[6] = Plasma concentration in mouse at 10 mg/kg, po after 8 hrs; type: ADME, organism-based

concentration at 2 h [3]	concentration at 2 h [4]	concentration at 8 h [5]	concentration at 8 h [6]	Compound	concentration at 8 h [1]	concentration at 8 h [2]
–	–	–	–	CCc1cc2c(cc1-c1cnn(CC(=O)N(C)C)c1)C(C)(C)c1[nH]c3cc(C#N)ccc3c1C2=O	4 nM	4 nM
210 nM	210 nM	50 nM	170 nM	CCc1cc2c(cc1-c1cnn(CCCN(C)C)c1)C(C)(C)c1[nH]c3cc(C#N)ccc3c1C2=O	80 nM	–
